The nature of data set [1]: Inhibition of nitration of compound 1A in the presence of nitrite by antioxidant inhibitor agents. Type of data set: physicochemical. The note with it: for Nitration (%) of 1A with inhibiting agent: 1A 50 μM, NaNO2 100 μM; for inhibition of the nitrite-mediated nitration of 1A: pH and nitrite concentration that give almost total conversion to the nitro reaction product. The procedure:
(§1) It is known that L-tyrosine can be converted to a nitro reaction product in which the NO2 group is substituted ortho to the ring hydroxyl group. The experimental procedure for determining the extent of nitration of L-tyrosine was used for determining the nitration of compound 1A and the inhibition thereof by selected antioxidants. The experimental procedure for L-tyrosine is known (1998, Chem. Res. Toxicol., 11, 1578). In brief, solutions of compound 1A (50 μM) were exposed to solutions of NaNO3 (2500 μM) and/or NaNO2 (various concentrations) at various pH values, at 37° C. and in the presence or absence of phosphate buffer. The nitration reaction leads to the formation of the 5′-nitro reaction product of compound 1A. This reaction product can be detected and quantified using HPLC, the reaction product having a reduced retention time (under the conditions used) compared to the parent compound. Antioxidant inhibitors were then added to NaNO2— and 1A-containing test solutions and the nitration tests repeated.
On addition of selected antioxidant inhibiting agents to compound 1A in the presence of nitrite, the results of Table 2 were achieved. The amount of antioxidant used was generally around 10-20 times the amount of compound 1A.

The nature of data set [2]: In vivo nitration study in rats. Particulars: given with nitrate and nitrite solution (54 mg and 4 mg per rat).
Data set [3] is described as follows: Nitration of compound 1A in the presence of nitrite and/or nitrate at various pH (HPLC-MS/MS). The format is physicochemical. The note with it: 1A 50 μM. The procedure: as §1
Analysis was by HPLC-MS/MS, with the following conditions: […]

A short description of data set [4]: Clinical testing: nitrated reaction product after compound 1A as solution or enteric coated tablets. Particulars: solution, single dose, clinically relevant dosages. The format is in vivo, human. The text has this: Clinically relevant dosages of compound 1A were given to human subjects in the form of a solution in a single dose.

On to `O=S([O-])O.[Na+]` [Sodium bisulfite], for which the “Nitration (%) of 1A with inhibiting agent” value is recorded as 0.77% in data set [1] (pH 2 (HCl), 0 hr); 0.11% in data set [1] (pH 2 (HCl), 2 hr); 0.11% in data set [1] (pH 2 (phosphate), 0 hr); 0.16% in data set [1] (pH 2 (phosphate), 2 hr); 0.17% in data set [1] (pH 2 (phosphate), 4 hr); 0% in data set [1] (pH 6.4 (NaAc), 2 hr). Moreover, the “Nitration (%) of 1A with inhibiting agent” value in data set [1] (pH 6.4 (NaAc), 4 hr) was found to be 0%; in data set [1] (pH 6.4 (phosphate), 2 hr), 0%; in data set [1] (pH 6.4 (phosphate), 4 hr) it was 0%.
Catechin: the “Nitration (%) of 1A with inhibiting agent” value in data set [1] (pH 2 (HCl), 4 hr) was 0.01%; in data set [1] (pH 2 (HCl), 24 hr), 0.02%; in data set [1] (pH 2 (phosphate), 4 hr), 0.01%; in data set [1] (pH 2 (phosphate), 24 hr) it was 0%; in data set [1] (pH 6.4 (NaAc), 4 hr), 0%; in data set [1] (pH 6.4 (NaAc), 24 hr), 0%. In addition, the “Nitration (%) of 1A with inhibiting agent” value in data set [1] (pH 6.4 (phosphate), 4 hr) is listed as 0%; in data set [1] (pH 6.4 (phosphate), 24 hr), 0%.
As to `Cc1cc(C(C)(C)C)c(O)c(C(C)(C)C)c1` [BHT, butylated hydroxytoluene], the “Nitration (%) of 1A with inhibiting agent” value in data set [1] (pH 2 (HCl), 24 hr) was 0.02%. In data set [1], the “inhibition of the nitrite-mediated nitration of 1A” value is “essentially complete inhibition”.
In the case of `CC(C)c1cc(Oc2c(Br)cc(NC(=O)CC(=O)O)cc2Br)ccc1O` [compound 1A, 3-[[3,5-Dibromo-4-[4-hydroxy-3-(1-methylethyl)-phenoxy]-phenyl]-amino]-3-oxopropanoic acid], the administered dose nitrated result in data set [2] is “around 6%”. For the same compound, the “Nitration (%)” value was 98.6% in data set [3] (NaNO2 100 μM, no NaNO3, pH 2 (HCl), 4 hr); 4.27% in data set [3] (NaNO2 100 μM, no NaNO3, pH 2 (phosphate), 4 hr); 0.013% in data set [3] (NaNO2 100 μM, no NaNO3, pH 6.4, 4 hr); 0% in data set [3] (NaNO2 100 μM, no NaNO3, pH 7.2, 4 hr); 0.02% in data set [3] (NaNO2 100 μM, no inhibiting agent, pH 6.4, 24 hr); 0.12% in data set [3] (NaNO2 400 μM, no inhibiting agent, pH 6.4, 24 hr). Further, the “Nitration (%)” value was found to be 0.21% in data set [3] (NaNO2 800 μM, no inhibiting agent, pH 6.4, 24 hr); 8.4% in data set [3] (NaNO3 2500 μM, NaNO2 100 μM, pH 2 (HCl), 4 hr); 9.63% in data set [3] (NaNO3 2500 μM, NaNO2 100 μM, pH 2 (phosphate), 4 hr); 0.017% in data set [3] (NaNO3 2500 μM, NaNO2 100 μM, pH 6.4, 4 hr); 0% in data set [3] (NaNO3 2500 μM, NaNO2 100 μM, pH 7.2, 4 hr); 0% in data set [3] (NaNO3 2500 μM, no NaNO2, pH 2 (HCl), 4 hr). Also, the “Nitration (%)” value in data set [3] (NaNO3 2500 μM, no NaNO2, pH 2 (phosphate), 4 hr) came to 0%; in data set [3] (NaNO3 2500 μM, no NaNO2, pH 6.4, 4 hr) it was 0%; in data set [3] (NaNO3 2500 μM, no NaNO2, pH 7.2, 4 hr), 0%; in data set [3] (no NaNO3, no NaNO2, pH 2 (HCl), 24 hr), 0%; in data set [3] (no NaNO3, no NaNO2, pH 2 (phosphate), 24 hr), 0%; in data set [3] (no NaNO3, no NaNO2, pH 6.4, 24 hr), 0%. Besides, in data set [3] (no NaNO3, no NaNO2, pH 7.2, 24 hr), the “Nitration (%)” value stood at 0%. Besides, in data set [4], the “nitrated reaction product in human subjects” value is listed as “detected in a significant number of the subjects”.
Take `O=C1O[C@H]([C@@H](O)CO)C([O-])=C1O.[Na+]` [Sodium ascorbate]: the “Nitration (%) of 1A with inhibiting agent” value in data set [1] (pH 2 (HCl), 4 hr) was found to be 0.00%; in data set [1] (pH 2 (phosphate), 4 hr) it was 0.00%; in data set [1] (pH 6.4, 4 hr), 0.00%; in data set [1] (pH 7.2, 4 hr) it was 0.00%. In data set [1], the “inhibition of the nitrite-mediated nitration of 1A” value is recorded as “essentially complete inhibition”.

Values taken from patent publication US20090220598A1, “Stable Oral Pharmaceutical Composition Containing Thyroid Hormone Receptor Agonists” (priority 2006, published 2009).
